Test results as given in ChEMBL document CHEMBL1133081, “Design and synthesis of potent hexapeptide and heptapeptide gonadotropin-releasing hormone antagonists by truncation of a decapeptide analogue sequence” (J Med Chem, 2000).

target: T1, Gonadotropin-releasing hormone receptor (Rattus norvegicus, UniProt P30969); experiment: Concentration of the peptide which displaces 50% of 125 I-[D-Lys6] gonadotropin-releasing hormone bound to rat pituitary membranes; format: cell membranes, Membrane
T1 sequence (P30969 whole entry): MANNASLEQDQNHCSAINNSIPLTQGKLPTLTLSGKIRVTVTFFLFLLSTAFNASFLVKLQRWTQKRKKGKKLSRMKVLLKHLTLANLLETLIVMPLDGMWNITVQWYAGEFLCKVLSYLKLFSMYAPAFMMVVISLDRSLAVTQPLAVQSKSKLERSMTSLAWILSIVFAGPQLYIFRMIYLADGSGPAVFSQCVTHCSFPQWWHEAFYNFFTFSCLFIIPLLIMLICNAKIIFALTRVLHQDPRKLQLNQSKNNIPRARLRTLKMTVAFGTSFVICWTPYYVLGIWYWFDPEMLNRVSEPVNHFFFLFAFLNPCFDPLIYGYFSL

SMILES | IC50
CCCC[C@H](NC(=O)[C@@H](C)NC(=O)[C@@H](Cc1ccccn1)NC(=O)[C@@H](Cc1ccc(Cl)cc1)NC(=O)[C@@H](Cc1ccc2ccccc2c1)NC(C)=O)C(=O)N1CCC[C@H]1C(=O)N[C@H](C)C(N)=O | 88 nM
CC(=O)N[C@H](Cc1ccc2ccccc2c1)C(=O)N[C@H](Cc1ccc(Cl)cc1)C(=O)N[C@H](Cc1ccccn1)C(=O)N[C@H](C)C(=O)N[C@@H](CCCNC(N)=O)C(=O)N1CCC[C@H]1C(=O)N[C@H](C)C(N)=O | 23 nM
CC(=O)N[C@H](Cc1ccc2ccccc2c1)C(=O)N[C@H](Cc1ccc(Cl)cc1)C(=O)N[C@H](Cc1ccccn1)C(=O)N[C@H](C)C(=O)N[C@@H](CCCCNNC(=O)c1cccnc1)C(=O)N1CCC[C@H]1C(=O)N[C@H](C)C(N)=O | 14 nM
CC(=O)N[C@H](Cc1ccc2ccccc2c1)C(=O)N[C@H](Cc1ccc(Cl)cc1)C(=O)N[C@H](Cc1ccccn1)C(=O)Nc1ccccc1C(=O)N[C@@H](CCCNC(=N)N)C(=O)N1CCC[C@H]1C(=O)N[C@H](C)C(N)=O | 140 nM
CC(=O)N[C@H](Cc1ccc2ccccc2c1)C(=O)N[C@H](Cc1ccc(Cl)cc1)C(=O)N[C@H](Cc1ccccn1)C(=O)N[C@H](C)C(=O)N1CCC[C@H]1C(=O)N[C@H](C)C(N)=O | 1500 nM
CC(=O)N[C@H](Cc1ccccc1)C(=O)N[C@H](Cc1ccccc1)C(=O)N[C@H](Cc1ccccc1)C(=O)NCC(=O)N[C@@H](CCCNC(=N)N)C(=O)N1CCC[C@H]1C(=O)N[C@H](C)C(N)=O | 230 nM
CC(=O)N[C@H](Cc1ccc2ccccc2c1)C(=O)N[C@H](Cc1ccc(Cl)cc1)C(=O)N[C@H](Cc1ccccn1)C(=O)N[C@H](C)C(=O)N[C@@H](CCCNC(=N)N)C(=O)N1CCC[C@H]1C(=O)N[C@H](C)C(N)=O | 17 nM
CC(=O)N[C@H](Cc1ccc2ccccc2c1)C(=O)N[C@H](Cc1ccc(Cl)cc1)C(=O)N[C@H](Cc1ccccn1)C(=O)NCC(=O)N1CCC[C@H]1C(=O)N[C@H](C)C(N)=O | 45 nM
CC(=O)N[C@H](Cc1cccc2ccccc12)C(=O)N[C@H](Cc1ccccc1)C(=O)N[C@H](Cc1ccccc1)C(=O)NCC(=O)N[C@@H](CCCNC(=N)N)C(=O)N1CCC[C@H]1C(=O)N[C@H](C)C(N)=O | 370 nM
CC(=O)N[C@H](Cc1ccc2ccccc2c1)C(=O)N[C@H](Cc1ccc(Cl)cc1)C(=O)N[C@H](Cc1ccccn1)C(=O)N[C@@H](C)C(=O)N[C@@H](CCCNC(=N)N)C(=O)N1CCC[C@H]1C(=O)N[C@H](C)C(N)=O | 28 nM
CC(=O)N[C@H](Cc1ccc2ccccc2c1)C(=O)N[C@H](Cc1ccccc1)C(=O)N[C@H](Cc1ccccc1)C(=O)NCC(=O)N[C@@H](CCCN=C(N)N)C(=O)N1CCC[C@H]1C(=O)N[C@H](C)C(N)=O | 28 nM
CC(=O)N[C@H](Cc1ccc2ccccc2c1)C(=O)N[C@H](Cc1ccc(Cl)cc1)C(=O)N[C@H](Cc1ccccn1)C(=O)N[C@H](C)C(=O)N[C@@H](CCCCNC(C)C)C(=O)N1CCC[C@H]1C(=O)N[C@H](C)C(N)=O | 130 nM
CC(=O)N[C@H](Cc1ccc2ccccc2c1)C(=O)N[C@H](Cc1ccc(Cl)cc1)C(=O)N[C@H](Cc1cccnc1)C(=O)N1CCC[C@H]1C(=O)N[C@@H](CCCN=C(N)N)C(=O)N1CCC[C@H]1C(=O)N[C@H](C)C(N)=O | 110 nM
C[C@@H](NC(=O)[C@@H]1CCCN1C(=O)[C@H](CCCNC(=N)N)NC(=O)CNC(=O)[C@@H](Cc1ccccc1)NC(=O)[C@@H](Cc1ccccc1)NC(=O)[C@@H](Cc1ccc2ccccc2c1)NC(=O)OCC1c2ccccc2-c2ccccc21)C(N)=O | 2200 nM
CC(=O)N[C@H](Cc1c[nH]c2ccccc12)C(=O)N[C@H](Cc1ccccc1)C(=O)N[C@H](Cc1ccccc1)C(=O)NCC(=O)N[C@@H](CCCN=C(N)N)C(=O)N1CCC[C@H]1C(=O)N[C@H](C)C(N)=O | 450 nM
CC(=O)N[C@H](Cc1ccc2ccccc2c1)C(=O)N[C@H](Cc1ccc(Cl)cc1)C(=O)N[C@H](Cc1ccccn1)C(=O)N[C@H](CC(C)C)C(=O)N[C@@H](CCCNC(=N)N)C(=O)N1CCC[C@H]1C(=O)N[C@H](C)C(N)=O | 74 nM
C[C@@H](NC(=O)[C@@H]1CCCN1C(=O)[C@H](CCCN=C(N)N)NC(=O)CNC(=O)[C@@H](Cc1ccccc1)NC(=O)[C@@H](Cc1ccccc1)NC(=O)[C@H](N)Cc1ccc2ccccc2c1)C(N)=O | 280 nM
CC(=O)N[C@H](Cc1ccc2ccccc2c1)C(=O)N[C@H](Cc1ccc(Cl)cc1)C(=O)N[C@H](Cc1ccccn1)C(=O)N[C@H](C)C(=O)N[C@@H](CCCCN)C(=O)N1CCC[C@H]1C(=O)N[C@H](C)C(N)=O | 20 nM

Results, then the molecule that gave them:

IC50 | SMILES
72 nM | CC(=O)N[C@H](Cc1ccc2ccccc2c1)C(=O)N[C@H](Cc1ccc(Cl)cc1)C(=O)N[C@H](Cc1ccccn1)C(=O)N[C@H](CCCN=C(N)N)C(=O)N[C@@H](CCCNC(N)=O)C(=O)N1CCC[C@H]1C(=O)N[C@H](C)C(N)=O
81 nM | CC(=O)N[C@H](Cc1ccc2ccccc2c1)C(=O)N[C@H](Cc1ccc(Cl)cc1)C(=O)N[C@H](Cc1ccccn1)C(=O)N[C@@H](CC(C)C)C(=O)N[C@@H](CCCN=C(N)N)C(=O)N1CCC[C@H]1C(=O)N[C@H](C)C(N)=O
25 nM | CC(=O)N[C@@H](Cc1ccc2ccccc2c1)C(=O)N[C@H](Cc1ccc(Cl)cc1)C(=O)N[C@H](Cc1ccccn1)C(=O)N[C@@H](Cc1ccc(O)cc1)C(=O)N[C@H](CCCN=C(N)N)C(=O)N1CCC[C@@H]1C(=O)N[C@@H](C)C(N)=O
38 nM | CC(=O)N[C@H](Cc1ccc2ccccc2c1)C(=O)N[C@H](Cc1ccc(Cl)cc1)C(=O)N[C@H](Cc1ccccn1)C(=O)NCCC(=O)N[C@@H](CCCNC(=N)N)C(=O)N1CCC[C@H]1C(=O)N[C@H](C)C(N)=O
550 nM | CC(=O)N[C@@H](Cc1ccc2ccccc2c1)C(=O)N[C@H](Cc1ccc(Cl)cc1)C(=O)N[C@H](Cc1ccccn1)C(=O)N[C@H](CCCCN)C(=O)N1CCC[C@@H]1C(=O)N[C@@H](C)C(N)=O
130 nM | CC(=O)N[C@H](Cc1ccc2ccccc2c1)C(=O)N[C@H](Cc1ccc(Cl)cc1)C(=O)N[C@H](Cc1ccccn1)C(=O)N[C@@H](CCCN=C(N)N)C(=O)N1CCC[C@H]1C(=O)N[C@H](C)C(N)=O
42 nM | CC(=O)N[C@H](Cc1ccc2ccccc2c1)C(=O)N[C@H](Cc1ccc(Cl)cc1)C(=O)N[C@H](Cc1ccccn1)C(=O)NC1(C(=O)N[C@@H](CCCN=C(N)N)C(=O)N2CCC[C@H]2C(=O)N[C@H](C)C(N)=O)CCC1
31 nM | CC(=O)N[C@H](Cc1ccc2ccccc2c1)C(=O)N[C@H](Cc1ccc(Cl)cc1)C(=O)N[C@H](Cc1ccccn1)C(=O)N(C)CC(=O)N[C@@H](CCCNC(=N)N)C(=O)N1CCC[C@H]1C(=O)N[C@H](C)C(N)=O
70 nM | CC(=O)N[C@H](Cc1ccc2ccccc2c1)C(=O)N[C@H](Cc1ccc(Cl)cc1)C(=O)N[C@H](Cc1ccccn1)C(=O)N[C@H](CCCNC(=N)N)C(=O)N1CCC[C@H]1C(=O)N[C@H](C)C(N)=O
7 nM | CC(=O)N[C@H](Cc1ccc2ccccc2c1)C(=O)N[C@H](Cc1ccc(Cl)cc1)C(=O)N[C@H](Cc1ccccn1)C(=O)NCC(=O)N[C@@H](CCCN=C(N)N)C(=O)N1CCC[C@H]1C(=O)N[C@H](C)C(N)=O
16 nM | CC(=O)N[C@H](Cc1ccc2ccccc2c1)C(=O)N[C@H](Cc1ccc(Cl)cc1)C(=O)N[C@H](Cc1ccccn1)C(=O)NCC(=O)N[C@H](CCCNC(=N)N)C(=O)N1CCC[C@H]1C(=O)N[C@H](C)C(N)=O
